Values quoted from earlier work in patent US8026262B2, “Chemical compounds” (GlaxoSmithKline LLC, priority 2006, dated 2011).

Assays:
[1] = system: ovariectomized (OVX) rats

Compound | bone mineral density (BMD) of femur (ORX rats; 4 weeks, as markedly as DHT) | levator ani muscle weight (ORX rats; 4 weeks, as markedly as DHT) | prostate weight (ORX rats; versus eugonadal rats, at any doses tested) | periosteal mineral apposition rate of the femur [1] | BMD of femoral cortical bone ([1]; 2 month period) | biomechanical strength of femoral cortical bone ([1]; 2 month period)
CN(C)[C@H]1C[C@@H](C(C)(C)CO)Nc2ccc([N+](=O)[O-])cc21 [Example S-40503] | increased | increased | not elevated | increase | significantly increased | significantly increased
estrogen |  |  |  |  |  | did not
